Laboratory results as given in patent publication EP4674849A1, “FLUORESCENT DYE FOR DETECTING NUCLEIC ACID” (Keio University, priority 2023, dated 2024).

Molecular target: deoxyribonucleic acid (derived from salmon sperm) with a length of 500 to 1000 bp
Test: DNA binding assay of fluorescent dyes (fluorescence titration, fit to McGhee-von Hippel equation)
Conditions: TE buffer (pH: 8.0); dye 200, 400, 800 nM; DNA 0.5-12 µM; excitation 475 nm, emission 520 nm; read-out: Dissociation constant Kd
Description: The obtained results were fitted to the McGhee-von Hippel equation (Equation 1) to determine the dissociation constant (Kd) and the number of base pairs at the dye-binding site (N).

For CCCN(CCCN(C)C)c1cc(/C=C2/Sc3ccccc3N2C)c2ccccc2[n+]1-c1ccccc1, the Kd was 1000 ± 90 nM.
